Earlier results on one compound are cited in PMC9851200, “Multiparameter phenotypic screening for endogenous TFEB and TFE3 translocation identifies novel chemical series modulating lysosome function” (Autophagy, 2022).

Common to all, as to set-up: method as in original PKIS2 published data
The target in data set [1] is T1, kinases (KINOMEscan panel) (Homo sapiens, UniProt O14730).
T1 sequence (O14730 1-519): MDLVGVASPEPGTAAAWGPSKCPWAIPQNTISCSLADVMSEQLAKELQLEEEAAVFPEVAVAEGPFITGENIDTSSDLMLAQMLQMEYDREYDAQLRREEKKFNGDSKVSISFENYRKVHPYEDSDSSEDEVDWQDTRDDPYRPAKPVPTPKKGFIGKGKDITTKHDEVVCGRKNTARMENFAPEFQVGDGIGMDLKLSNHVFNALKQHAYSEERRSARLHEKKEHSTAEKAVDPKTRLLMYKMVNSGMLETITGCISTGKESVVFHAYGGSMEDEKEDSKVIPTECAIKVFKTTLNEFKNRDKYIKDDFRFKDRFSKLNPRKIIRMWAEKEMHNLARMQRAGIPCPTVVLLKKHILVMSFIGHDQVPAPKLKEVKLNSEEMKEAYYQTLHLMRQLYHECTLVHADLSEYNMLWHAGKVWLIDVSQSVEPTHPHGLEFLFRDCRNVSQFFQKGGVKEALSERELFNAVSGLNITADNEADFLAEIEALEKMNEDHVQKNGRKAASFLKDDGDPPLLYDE
The note with it: RIOK3; Published KINOMEscan; ref original PKIS2 published data; cited from earlier work.

The target of data set [2] is T2, kinases (KINOMEscan panel) (Homo sapiens, UniProt O14920).
T2 sequence (O14920 1-756): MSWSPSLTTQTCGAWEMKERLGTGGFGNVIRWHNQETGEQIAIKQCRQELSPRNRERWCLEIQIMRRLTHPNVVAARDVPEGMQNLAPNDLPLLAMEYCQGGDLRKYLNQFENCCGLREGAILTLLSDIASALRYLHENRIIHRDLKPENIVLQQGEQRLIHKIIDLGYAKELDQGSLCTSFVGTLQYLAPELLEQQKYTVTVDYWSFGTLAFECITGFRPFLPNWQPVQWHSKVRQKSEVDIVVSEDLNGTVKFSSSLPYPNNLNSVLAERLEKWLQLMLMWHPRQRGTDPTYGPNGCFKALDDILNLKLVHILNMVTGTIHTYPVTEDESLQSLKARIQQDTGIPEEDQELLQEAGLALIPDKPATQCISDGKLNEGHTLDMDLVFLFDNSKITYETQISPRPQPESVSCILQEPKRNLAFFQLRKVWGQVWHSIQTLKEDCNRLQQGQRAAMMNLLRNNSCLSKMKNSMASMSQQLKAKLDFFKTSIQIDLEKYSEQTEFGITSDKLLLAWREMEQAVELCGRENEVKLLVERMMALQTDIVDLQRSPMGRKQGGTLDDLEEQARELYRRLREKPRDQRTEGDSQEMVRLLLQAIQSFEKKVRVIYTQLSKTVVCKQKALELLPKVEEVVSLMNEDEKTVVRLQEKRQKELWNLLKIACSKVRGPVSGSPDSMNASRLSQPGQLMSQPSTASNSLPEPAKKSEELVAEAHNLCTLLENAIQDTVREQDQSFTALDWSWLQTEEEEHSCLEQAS
The note with it: cited from earlier work.

The target in data set [3] is kinases (KINOMEscan panel) (Homo sapiens, UniProt P22607). Particulars: FGFR3; Published KINOMEscan; ref original PKIS2 published data; cited from earlier work.
For data set [4], the target named is kinases (KINOMEscan panel) (Homo sapiens, UniProt P27448). The note with it: MARK3; Published KINOMEscan; ref original PKIS2 published data; cited from earlier work.
Sequence of kinases (KINOMEscan panel) (Homo sapiens, UniProt P27448) (P27448 whole entry): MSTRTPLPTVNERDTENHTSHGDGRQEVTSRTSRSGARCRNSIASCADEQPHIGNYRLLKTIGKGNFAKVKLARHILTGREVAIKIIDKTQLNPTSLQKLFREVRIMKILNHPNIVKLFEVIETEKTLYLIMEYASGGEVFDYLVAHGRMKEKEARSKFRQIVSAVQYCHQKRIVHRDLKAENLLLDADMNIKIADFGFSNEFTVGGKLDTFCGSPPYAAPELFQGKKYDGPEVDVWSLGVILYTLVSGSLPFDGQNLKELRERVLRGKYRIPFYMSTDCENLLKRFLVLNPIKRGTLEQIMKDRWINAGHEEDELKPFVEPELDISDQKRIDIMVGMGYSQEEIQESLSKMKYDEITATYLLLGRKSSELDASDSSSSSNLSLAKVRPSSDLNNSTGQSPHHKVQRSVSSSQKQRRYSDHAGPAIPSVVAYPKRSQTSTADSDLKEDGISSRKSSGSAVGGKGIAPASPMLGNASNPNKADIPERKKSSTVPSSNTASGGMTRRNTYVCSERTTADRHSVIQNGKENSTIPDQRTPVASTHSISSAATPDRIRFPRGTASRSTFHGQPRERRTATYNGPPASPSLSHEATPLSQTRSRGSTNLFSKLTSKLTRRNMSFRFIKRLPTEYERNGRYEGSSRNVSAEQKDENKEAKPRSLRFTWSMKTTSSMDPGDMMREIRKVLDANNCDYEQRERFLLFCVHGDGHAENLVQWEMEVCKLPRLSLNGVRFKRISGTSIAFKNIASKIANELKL
Data set [5] deals with kinases (KINOMEscan panel) (Homo sapiens, UniProt P42685). Particulars: kinase FRK; Published KINOMEscan; ref original PKIS2 published data; cited from earlier work.
In data set [6] the target is T3, kinases (KINOMEscan panel) (Homo sapiens, UniProt P51817).
T3 sequence (P51817 1-358): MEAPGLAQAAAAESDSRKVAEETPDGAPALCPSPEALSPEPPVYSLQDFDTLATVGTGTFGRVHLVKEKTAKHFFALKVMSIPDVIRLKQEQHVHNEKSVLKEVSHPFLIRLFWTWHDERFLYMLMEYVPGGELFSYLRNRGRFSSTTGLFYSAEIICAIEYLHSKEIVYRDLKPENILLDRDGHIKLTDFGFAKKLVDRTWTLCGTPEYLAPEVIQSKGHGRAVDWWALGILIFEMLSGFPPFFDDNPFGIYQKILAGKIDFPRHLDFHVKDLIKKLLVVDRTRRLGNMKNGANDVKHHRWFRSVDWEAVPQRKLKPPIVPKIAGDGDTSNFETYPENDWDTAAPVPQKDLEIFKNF
The note with it: kinase PRKX; Published KINOMEscan; ref original PKIS2 published data; cited from earlier work.

In data set [7] the target is kinases (KINOMEscan panel) (Homo sapiens, UniProt Q13554). Particulars: kinase CAMK2B; Published KINOMEscan; ref original PKIS2 published data; cited from earlier work.
Data set [8] concerns the target kinases (KINOMEscan panel) (Homo sapiens, UniProt Q15746). The note with it: kinase MYLK; Published KINOMEscan; ref original PKIS2 published data; cited from earlier work.
Data set [9] deals with kinases (KINOMEscan panel) (Homo sapiens, UniProt Q9BWU1). Particulars: kinase CDK19; Published KINOMEscan; ref original PKIS2 published data; cited from earlier work.
Sequence of kinases (KINOMEscan panel) (Homo sapiens, UniProt Q9BWU1) (Q9BWU1 whole entry): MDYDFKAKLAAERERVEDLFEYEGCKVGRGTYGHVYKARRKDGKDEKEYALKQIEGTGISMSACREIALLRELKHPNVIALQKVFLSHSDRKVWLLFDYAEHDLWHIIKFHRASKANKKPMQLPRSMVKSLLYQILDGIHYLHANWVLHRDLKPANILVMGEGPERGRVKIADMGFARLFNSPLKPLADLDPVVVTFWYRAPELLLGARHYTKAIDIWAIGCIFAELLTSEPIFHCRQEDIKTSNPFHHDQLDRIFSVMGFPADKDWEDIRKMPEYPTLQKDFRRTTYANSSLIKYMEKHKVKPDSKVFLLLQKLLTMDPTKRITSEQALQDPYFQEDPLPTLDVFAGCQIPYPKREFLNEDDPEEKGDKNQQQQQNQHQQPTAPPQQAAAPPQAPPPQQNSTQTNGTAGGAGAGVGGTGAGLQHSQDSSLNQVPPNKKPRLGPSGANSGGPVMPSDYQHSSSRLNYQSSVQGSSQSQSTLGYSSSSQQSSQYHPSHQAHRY
Data set [10] deals with kinases (KINOMEscan panel) (Homo sapiens, UniProt Q9P0L2). The note with it: Published KINOMEscan; ref original PKIS2 published data; cited from earlier work.
In data set [11] the target is kinases (KINOMEscan panel) (Homo sapiens, UniProt Q9UM73). Particulars: kinase ALK; Published KINOMEscan; ref original PKIS2 published data; cited from earlier work.
Sequence of kinases (KINOMEscan panel) (Homo sapiens, UniProt Q9UM73) (Q9UM73 19-1620): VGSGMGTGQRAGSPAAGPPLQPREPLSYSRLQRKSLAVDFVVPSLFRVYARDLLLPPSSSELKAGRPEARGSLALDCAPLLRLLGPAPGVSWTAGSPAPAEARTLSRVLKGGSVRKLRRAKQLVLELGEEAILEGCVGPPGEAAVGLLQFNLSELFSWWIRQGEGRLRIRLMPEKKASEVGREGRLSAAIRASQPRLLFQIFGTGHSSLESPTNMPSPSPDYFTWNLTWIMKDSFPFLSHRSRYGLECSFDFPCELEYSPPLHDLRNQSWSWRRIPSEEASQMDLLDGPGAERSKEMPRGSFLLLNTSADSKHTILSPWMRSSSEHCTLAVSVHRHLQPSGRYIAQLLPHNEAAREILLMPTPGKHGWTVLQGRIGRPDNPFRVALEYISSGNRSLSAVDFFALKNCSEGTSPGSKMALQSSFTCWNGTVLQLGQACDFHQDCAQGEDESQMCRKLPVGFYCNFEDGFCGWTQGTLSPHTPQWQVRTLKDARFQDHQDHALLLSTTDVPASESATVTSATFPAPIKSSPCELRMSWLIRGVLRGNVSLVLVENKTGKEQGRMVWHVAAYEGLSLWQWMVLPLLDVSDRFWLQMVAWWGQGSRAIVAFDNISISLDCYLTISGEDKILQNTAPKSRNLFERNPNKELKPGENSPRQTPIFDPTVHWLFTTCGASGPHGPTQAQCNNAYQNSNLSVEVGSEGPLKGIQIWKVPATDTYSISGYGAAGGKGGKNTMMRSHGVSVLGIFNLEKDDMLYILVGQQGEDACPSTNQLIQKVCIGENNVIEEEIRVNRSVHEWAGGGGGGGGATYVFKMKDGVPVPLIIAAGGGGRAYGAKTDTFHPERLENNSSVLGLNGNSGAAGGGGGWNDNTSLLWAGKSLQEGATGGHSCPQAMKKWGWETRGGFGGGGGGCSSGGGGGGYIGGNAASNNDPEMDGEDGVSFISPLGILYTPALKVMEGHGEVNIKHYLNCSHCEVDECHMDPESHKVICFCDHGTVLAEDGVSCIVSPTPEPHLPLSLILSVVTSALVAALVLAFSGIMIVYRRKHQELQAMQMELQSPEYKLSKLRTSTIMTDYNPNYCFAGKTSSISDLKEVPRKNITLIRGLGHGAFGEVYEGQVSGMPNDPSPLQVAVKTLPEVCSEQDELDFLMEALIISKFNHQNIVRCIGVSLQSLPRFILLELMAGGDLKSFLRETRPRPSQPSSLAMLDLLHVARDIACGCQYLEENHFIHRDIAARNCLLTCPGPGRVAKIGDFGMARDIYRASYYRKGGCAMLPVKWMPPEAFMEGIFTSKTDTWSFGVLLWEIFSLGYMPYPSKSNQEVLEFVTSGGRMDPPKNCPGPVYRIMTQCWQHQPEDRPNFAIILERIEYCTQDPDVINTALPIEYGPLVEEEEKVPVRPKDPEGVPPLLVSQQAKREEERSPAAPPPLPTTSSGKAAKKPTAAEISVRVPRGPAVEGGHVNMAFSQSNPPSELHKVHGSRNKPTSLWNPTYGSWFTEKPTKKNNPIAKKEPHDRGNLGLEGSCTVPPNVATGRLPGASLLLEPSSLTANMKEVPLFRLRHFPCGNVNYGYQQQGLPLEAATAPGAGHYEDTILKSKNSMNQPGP

Molecules are shown by their SMILES.

Sequence of kinases (KINOMEscan panel) (Homo sapiens, UniProt Q15746) (Q15746 whole entry): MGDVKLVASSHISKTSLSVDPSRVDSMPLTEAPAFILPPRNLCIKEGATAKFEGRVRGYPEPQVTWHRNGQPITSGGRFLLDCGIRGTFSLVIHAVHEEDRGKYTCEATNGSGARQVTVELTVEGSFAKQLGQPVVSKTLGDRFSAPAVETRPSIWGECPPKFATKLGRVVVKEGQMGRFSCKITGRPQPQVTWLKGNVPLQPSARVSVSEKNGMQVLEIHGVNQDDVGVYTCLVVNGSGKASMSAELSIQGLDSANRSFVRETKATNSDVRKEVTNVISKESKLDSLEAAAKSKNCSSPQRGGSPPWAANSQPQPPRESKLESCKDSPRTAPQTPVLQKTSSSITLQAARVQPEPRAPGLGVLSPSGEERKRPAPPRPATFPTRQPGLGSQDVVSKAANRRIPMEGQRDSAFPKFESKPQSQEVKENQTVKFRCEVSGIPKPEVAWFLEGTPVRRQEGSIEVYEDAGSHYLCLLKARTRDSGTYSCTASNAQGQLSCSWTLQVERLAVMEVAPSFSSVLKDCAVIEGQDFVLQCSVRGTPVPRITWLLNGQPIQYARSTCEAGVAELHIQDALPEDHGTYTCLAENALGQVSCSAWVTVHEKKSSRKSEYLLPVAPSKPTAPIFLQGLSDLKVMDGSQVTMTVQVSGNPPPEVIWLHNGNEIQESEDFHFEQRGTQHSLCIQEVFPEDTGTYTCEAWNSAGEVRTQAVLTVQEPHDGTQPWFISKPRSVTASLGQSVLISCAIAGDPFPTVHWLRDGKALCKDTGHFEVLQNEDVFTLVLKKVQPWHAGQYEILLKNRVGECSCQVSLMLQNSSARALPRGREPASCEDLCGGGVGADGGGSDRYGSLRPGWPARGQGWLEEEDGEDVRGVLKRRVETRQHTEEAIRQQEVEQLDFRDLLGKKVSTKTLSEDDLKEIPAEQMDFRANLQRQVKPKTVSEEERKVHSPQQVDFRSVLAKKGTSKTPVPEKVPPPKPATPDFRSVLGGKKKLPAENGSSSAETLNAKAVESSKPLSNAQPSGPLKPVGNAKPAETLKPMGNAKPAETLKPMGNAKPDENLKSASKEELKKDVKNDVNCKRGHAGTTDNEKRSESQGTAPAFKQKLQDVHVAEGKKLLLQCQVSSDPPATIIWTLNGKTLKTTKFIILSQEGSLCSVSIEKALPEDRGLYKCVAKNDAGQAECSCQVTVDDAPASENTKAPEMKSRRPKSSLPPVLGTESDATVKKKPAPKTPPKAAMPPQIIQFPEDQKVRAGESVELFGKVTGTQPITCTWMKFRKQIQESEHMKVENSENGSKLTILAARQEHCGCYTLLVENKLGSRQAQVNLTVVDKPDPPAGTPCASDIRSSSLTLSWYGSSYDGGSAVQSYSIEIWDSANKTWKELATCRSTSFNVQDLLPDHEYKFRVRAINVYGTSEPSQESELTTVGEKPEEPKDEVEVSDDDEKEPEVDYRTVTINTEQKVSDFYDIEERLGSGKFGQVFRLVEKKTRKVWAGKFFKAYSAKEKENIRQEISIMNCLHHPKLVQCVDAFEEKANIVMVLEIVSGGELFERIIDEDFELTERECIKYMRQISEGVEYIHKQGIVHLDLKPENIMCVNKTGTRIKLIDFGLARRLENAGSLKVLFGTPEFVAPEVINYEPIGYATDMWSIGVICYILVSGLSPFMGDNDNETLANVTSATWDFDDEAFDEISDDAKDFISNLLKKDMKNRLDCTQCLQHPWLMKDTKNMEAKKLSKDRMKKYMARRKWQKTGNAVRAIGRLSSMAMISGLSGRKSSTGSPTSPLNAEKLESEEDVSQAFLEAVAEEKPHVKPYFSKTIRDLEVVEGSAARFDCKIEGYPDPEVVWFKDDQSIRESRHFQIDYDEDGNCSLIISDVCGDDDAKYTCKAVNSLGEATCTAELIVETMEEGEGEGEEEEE

Take `Cc1cccc(-c2nc(Nc3ccncc3)c3ccccc3n2)n1` [NK215]: the “KINOMEscan RIOK3” value in [1] is reported as 35. The “KINOMEscan IKBKB/IKK-beta” value in data set [2] is on record as 0. Also, the “KINOMEscan FGFR3” value in data set [3] is listed as 2. Also, the “KINOMEscan MARK3” value in data set [4] is reported as 32. Besides, the “KINOMEscan FRK” value in data set [5] is on record as 15. In addition, in data set [6], the “KINOMEscan PRKX” value was 0. Also, in [7], the “KINOMEscan CAMK2B” value is recorded as 0. For the same compound, in data set [8], the “KINOMEscan MYLK” value is given as 12. Also, the “KINOMEscan CDK19” value in data set [9] is recorded as 0. Moreover, in data set [10], the “KINOMEscan MARK1” value is reported as 0. In data set [11], the “KINOMEscan ALK” value is on record as 0.
